Here are results for four compounds from patent publication US20060178354A1, “Methods and compositions for the treatment of chronic pain using dhea and derivatives thereof” (priority 2003, published 2006).

For this experiment, the system named is chronic pain. Put plainly: Subjective pain reduction in a person with chronic pain (case report, scale of 0-100% reduction). Type of experiment: in vivo, human. The procedure: The tasks included many different routine physical tasks, but particularly included typing and use of a computer mouse. […] DHEA (50 mg/day) was also taken alone orally for three weeks. […] The degree was subjective based on a scale of 0-100% reduction, where 0% was no pain reduction and 100% was total pain elimination.
In addition to treatment with DHEA alone, the person of Example 1, was also treated with Nortriptyline alone and with a combination of 75 mg per day DHEA and 10 mg per day Nortriptyline.

`C[C@]12CC[C@H](O)CC1=CC[C@@H]1[C@@H]2CC[C@]2(C)C(=O)CC[C@@H]12` [DHEA, dehydroepiandrosterone]: the reduction in pain entry (50 mg/day alone orally for three weeks, by the end of the second week, subjective scale 0-100%) is listed as “approximately 25%”. Further, the “pain remaining, of the original pain” value (doses of 75 mg and I 00 mg for three weeks each, after 50 mg/day) is reported as “less than 50%”.
As to `CNCCC=C1c2ccccc2CCc2ccccc21` [Nortriptyline], where the note is “alone, 10 mg per day”, the reduction in pain entry is reported as “about 20%”. Further, the “reduction in pain compared with 10 mg per day” value (alone, 25 and 50 mg doses) is “to greater extent”.
As to `Cc1ccc(-c2cc(C(F)(F)F)nn2-c2ccc(S(N)(=O)=O)cc2)cc1` [celecoxib], the reduction in pain entry (400 mg/day alone, subjective scale, 0% no pain reduction, 100% total pain elimination) is “approximately 25%”.
In the case of `NCC1(CC(=O)O)CCCCC1` [gabapeatin, gabapentin], the pain relief entry (treatment with the drug alone, person with 5 year history of chronic pain) is given as “did not result in pain relief”.
